ChEMBL document CHEMBL4387791, “Bioactive Polyketide Derivatives from the Mangrove-Derived Fungus Daldinia eschscholtzii HJ004” (J Nat Prod, 2019)
The source made the active and inactive calls. No cut-off for these calls is given here.

Columns and labels:
[1] = Inhibition of Saccharomyces cerevisiae alpha-glucosidase using PNP-G as substrate incubated for 20 mins followed by substrate addition
Vibrio parahaemolyticus = test: Antibacterial activity against Vibrio parahaemolyticus ATCC 17749 by microplate assay method; assay type: functional, organism-based
Staphylococcus aureus [2] = test: Antibacterial activity against Staphylococcus aureus ATCC 25923 by microplate assay method; assay type: functional, organism-based
Staphylococcus aureus [3] = test: Antibacterial activity against methicillin-resistant Staphylococcus aureus ATCC 33591 by microplate assay method; assay type: functional, organism-based
Vibrio alginolyticus = test: Antibacterial activity against Vibrio alginolyticus ATCC 17802 by microplate assay method; assay type: functional, organism-based
[4] = system: Staphylococcus epidermidis; test: Antibacterial activity against Staphylococcus albus ATCC 8032 by microplate assay method; assay type: functional, organism-based

SMILES | IC50 [1] [µM] | Activity (Vibrio parahaemolyticus) | Activity (Staphylococcus aureus [2]) | Activity (Staphylococcus aureus [3]) | Activity (Vibrio alginolyticus) | Activity [4]
CCCc1cc(=O)c2c(OC)cccc2o1 | 84 | inactive | inactive | inactive | inactive | inactive
CCc1ccc2c(c1O)C(=O)[C@](O)(CC)[C@@H](O)C2 | 38 | inactive | inactive | inactive | inactive | inactive
Cc1cc2c(c(O)c1C)C(=O)C[C@@H](O)[C@H]2O (relative stereo) | 21 | inactive | inactive | inactive | inactive | inactive
C/C(=C\CO)[C@@H]1OC(=O)C(C)(C)[C@@H](O)[C@H]1C | 20 | inactive | inactive | inactive | inactive | inactive
CCc1c(OC)cc2c(c1O)C(=O)[C@H](C)[C@@H](C)[C@H]2O | 155 | inactive | inactive | inactive | inactive | inactive
CCc1c(OC)cc2c(c1O)C(=O)[C@H](C)[C@@H](C)[C@@H]2O | 35 | inactive | inactive | inactive | inactive | inactive
C[C@H]1O[C@H](O[C@H]2[C@H](O)[C@@H](O)[C@@H](O[C@H]3[C@H](O)[C@@H](O)C(O)O[C@@H]3CO)O[C@@H]2CO)[C@H](O)[C@@H](O)[C@@H]1N[C@H]1C=C(CO)[C@@H](O)[C@H](O)[C@H]1O (stereo partly specified) [ACARBOSE] | 3 |  |  |  |  | 
CCc1c(O)cc2c(=O)oc(C)c(C)c(=O)c2c1OC | 54 | inactive | inactive | inactive | inactive | inactive
C/C=C(\C)[C@@H]1OC(=O)C(C)(C)[C@H](O)[C@H]1C | 31 | inactive | inactive | inactive | inactive | inactive
CC(=O)OC/C=C(\C)[C@@H]1OC(=O)C(C)(C)[C@@H](O)[C@H]1C | 240 | inactive | inactive | inactive | inactive | inactive
COc1cc(O)cc2oc(C)c(C)c(=O)c12 | 13 | inactive | inactive | inactive | inactive | inactive
CCc1c(OC)cc2c(=O)c(C)c(C)oc2c1O | 100 | inactive | inactive | inactive | inactive | inactive
COc1cccc2c1[C@H](O)CCC2=O | 90 | inactive | inactive | inactive | inactive | inactive
COc1cccc2c1C(=O)CC(C)O2 (stereo unspecified) | 15 | inactive | inactive | inactive | inactive | inactive
O=C1CC[C@H](O)c2cccc(O)c21 | 70 | inactive | inactive | inactive | inactive | inactive
C/C=C(\C)[C@@H]1OC(=O)C(C)(C)[C@@H](O)[C@H]1C | 16 | inactive | inactive | inactive | inactive | inactive
